# From PubChem BioAssay AID2060502 (Molecular Pharmacology Branch, DTP, NCI, 2025)
# Tested on: 885724-159-R-J1-PDC complex spheroid viability
# Experiment: Anticancer human tumor 885724-159-R-J1-PDC patient-derived pancreatic adenocarcinoma cell line growth inhibition [GQUAD]
# Details: for IC50: curve of first compound; for viability, T/C: stronger effect = lower value
# From the text: DNA G-quadruplex Stabilizer Agents in Combinations in Complex Spheroids
# A high-throughput screen of multi-cell type tumor spheroids was designed to identify active combinations of DNA G-quadruplex stabilizer agents and targeted small molecules. Complex spheroids include a stromal component modeled by human endothelial cells (HUVEC) and fibroblasts modeled by human mesenchymal stem cells (MSCs). The concentration ranges selected for each drug and investigational agent were based upon clinically achievable concentrations if the clinical Cmax of the agent was known.
# Compounds. The drugs and investigational agents: pidnarulex (CX-5461; NSC782164), APTO-253 (NSC789042), BRACO-19 (NSC847499), peposertib (NSC802822), ceralasertib (NSC780249), elimusertib (NSC800525), camonsertib (NSC841442), AZD-1390 (NSC803789), olaparib (NSC753686), talazoparib (NSC767125), ART-558 (NSC835418), sotorasib (NSC818433), MRTX-1133 (NSC836407), SN-38 (NSC673596), topotecan (NSC609699), etoposide (NSC141540), doxorubicin (NSC123127), gemcitabine (NSC613327), 5-fluorouracil (NSC19893), paclitaxel (NSC125973), vemurafenib (NSC761431), panobinostat (NSC761190), R-306465 (JNJ-16241199; NSC773264), adavosertib (NSC754352), TP-3654 (NSC805149), carboplatin (NSC241240), KSQ-4279 (NSC840948), and staurosporine (NSC755774) were obtained from the National Cancer Institute (NCI) Developmental Therapeutics Program Chemical Repository (34). The FDA-approved anticancer drug set is available from the NCI Developmental Therapeutics Program. […] The stock solutions were prepared in dimethyl sulfoxide (DMSO, Sigma-Aldrich, St. Louis, MO, cat. D2650) at 800-fold the tested concentration and stored at -70 degrees C prior to their use. All drugs and investigational agents were tested over a range starting from a high concentration at or near the clinical Cmax and decreasing in half-log increments. If the clinical Cmax for an agent had not been determined, the highest concentration tested was 10 microM.
# 2.3 Cell Culture. All cells were maintained in an incubator at 37 degrees C and 5% CO2 with 95% humidity. The PDC lines were cultured according to standard operating procedures established by the NCI PDMR. All PDCs were thawed and cultured in Matrigel-coated flasks prepared with a working solution of 1X Ham's F-12 nutrient mix, without supplementation (Invitrogen, cat. 11765054), 100 U/mL penicillin-streptomycin (Invitrogen, cat. 15140122), and 2.5% Matrigel (Corning Inc., cat. 354248) for the first three passages. The 857933-349-R-J2-PDC line was cultured in 6C/Colon 1B media, which includes advanced DMEM/F-12 (Thermo Fisher Scientific, cat. 12634028), 10 mM HEPES (Thermo Fisher Scientific, cat. 15630080), 1X GlutaMAX supplement (Thermo Fisher Scientific, cat. 35050061), 0.1 mg/mL primocin (InvivoGen, cat. ant-pm-2), 10% defined fetal bovine serum, heat inactivated (HyClone Laboratories Inc., cat. SH30070.03HI), 50% L-WRN conditioned media (ATCC, cat. CRL-3276), 1.25 mM N-Acetyl-L-cysteine (Sigma-Aldrich, cat. A9165), 10 mM nicotinamide (Sigma-Aldrich, cat. N0636), 1X B-27 supplement (Thermo Fisher Scientific, cat. 17504044), 1X N-2 supplement (Thermo Fisher Scientific, cat. 17502048), 10 microM Y-27632 dihydrochloride (Tocris Bioscience, cat. 1254), and 50 ng/mL human EGF recombinant protein (Thermo Fisher Scientific, cat. PHG0311). The 485176-168-R4-J1-PDC line was cultured in Panc media, which includes all 6C/Colon 1B media components plus 100 ng/mL human FGF-10 (Thermo Fisher Scientific, cat. 100-26), 500 nM SB-431542 (Selleckchem, cat. S1067), and gastrin (Tocris, cat. 3006).
# […]
# [1] = second compound 0.0316 µM, first compound 0.0316 µM
# [2] = second compound 0.0316 µM, first compound 0.1 µM
# [3] = second compound 0.0316 µM, first compound 0.316 µM
# [4] = second compound 0.0316 µM, first compound 1 µM
# [5] = second compound 0.0316 µM, first compound 3.16 µM
# [6] = second compound 0.0316 µM, first compound 10 µM
# [7] = second compound 0.1 µM, first compound 0.0316 µM
# [8] = second compound 0.1 µM, first compound 0.1 µM
# [9] = second compound 0.1 µM, first compound 0.316 µM
# [10] = second compound 0.1 µM, first compound 1 µM
# [11] = second compound 0.1 µM, first compound 3.16 µM
# [12] = second compound 0.1 µM, first compound 10 µM
# [13] = second compound 0.316 µM, first compound 0.0316 µM
# [14] = second compound 0.316 µM, first compound 0.1 µM
# [15] = second compound 0.316 µM, first compound 0.316 µM
# [16] = second compound 0.316 µM, first compound 1 µM
# [17] = second compound 0.316 µM, first compound 3.16 µM
# [18] = second compound 0.316 µM, first compound 10 µM
# [19] = second compound 1 µM, first compound 0.0316 µM
# [20] = second compound 1 µM, first compound 0.1 µM
# [21] = second compound 1 µM, first compound 0.316 µM
# [22] = second compound 1 µM, first compound 1 µM
# [23] = second compound 1 µM, first compound 3.16 µM
# [24] = second compound 1 µM, first compound 10 µM
# [25] = second compound 3.16 µM, first compound 0.0316 µM
# [26] = second compound 3.16 µM, first compound 0.1 µM
# [27] = second compound 3.16 µM, first compound 0.316 µM
# [28] = second compound 3.16 µM, first compound 1 µM
# [29] = second compound 3.16 µM, first compound 3.16 µM
# [30] = second compound 3.16 µM, first compound 10 µM
# [31] = second compound 10 µM, first compound 0.0316 µM
# [32] = second compound 10 µM, first compound 0.1 µM
# [33] = second compound 10 µM, first compound 0.316 µM
# [34] = second compound 10 µM, first compound 1 µM
# [35] = second compound 10 µM, first compound 3.16 µM
# [36] = second compound 10 µM, first compound 10 µM
# 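Also: spheroids exposed to agents for seven days before readout.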
# 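For viability, T/C in this document: percent of vehicle control viability where 100% = DMSO wells.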
smiles,measurement,setting,value
COc1ncnc(C2CC2)c1-c1ncc2cnn(Cc3ccc(-c4nc(C(F)(F)F)cn4C(C)C)cc3)c2n1 + Cc1cnc(CNC(=O)c2c(=O)c3ccc(N4CCCN(C)CC4)nc3n3c2sc2ccccc23)cn1,IC50,second compound 0.0316 µM,> 10000 nM
same,IC50,second compound 0.1 µM,> 10000 nM
same,IC50,second compound 0.316 µM,> 10000 nM
same,IC50,second compound 1 µM,> 10000 nM
same,IC50,second compound 3.16 µM,> 10000 nM
same,IC50,second compound 10 µM,> 10000 nM
same,"viability, T/C",[1],113%
same,"viability, T/C",[2],106%
same,"viability, T/C",[3],103%
same,"viability, T/C",[4],114%
same,"viability, T/C",[5],115%
same,"viability, T/C",[6],118%
same,"viability, T/C",[7],117%
same,"viability, T/C",[8],114%
same,"viability, T/C",[9],111%
same,"viability, T/C",[10],103%
same,"viability, T/C",[11],112%
same,"viability, T/C",[12],109%
same,"viability, T/C",[13],97.5%
same,"viability, T/C",[14],97.4%
same,"viability, T/C",[15],92.4%
same,"viability, T/C",[16],98.5%
same,"viability, T/C",[17],110%
same,"viability, T/C",[18],106%
same,"viability, T/C",[19],95.1%
same,"viability, T/C",[20],90.8%
same,"viability, T/C",[21],93.6%
same,"viability, T/C",[22],87.5%
same,"viability, T/C",[23],99.3%
same,"viability, T/C",[24],87.3%
same,"viability, T/C",[25],76.4%
same,"viability, T/C",[26],73.6%
same,"viability, T/C",[27],73.2%
same,"viability, T/C",[28],72.7%
same,"viability, T/C",[29],82.5%
same,"viability, T/C",[30],79.5%
same,"viability, T/C",[31],69.5%
same,"viability, T/C",[32],69.5%
same,"viability, T/C",[33],61.8%
same,"viability, T/C",[34],66.5%
same,"viability, T/C",[35],76.7%
same,"viability, T/C",[36],75.8%
CC1COCCN1c1cc(C2(O)CC3CCC(C2)O3)c2cnn(-c3ccn[nH]3)c2n1 (centres undefined) + CN(C)c1ccc(Nc2c3ccc(NC(=O)CCN4CCCC4)cc3nc3cc(NC(=O)CCN4CCCC4)ccc23)cc1,IC50,second compound 0.0316 µM,1480 nM
same,IC50,second compound 0.1 µM,1400 nM
same,IC50,second compound 0.316 µM,495 nM
same,IC50,second compound 1 µM,880 nM
same,IC50,second compound 3.16 µM,286 nM
same,IC50,second compound 10 µM,449 nM
same,"viability, T/C",[1],89%
same,"viability, T/C",[2],74%
same,"viability, T/C",[3],69.3%
same,"viability, T/C",[4],53.1%
same,"viability, T/C",[5],41.6%
same,"viability, T/C",[6],33.9%
same,"viability, T/C",[7],95.4%
same,"viability, T/C",[8],83.8%
same,"viability, T/C",[9],61.5%
same,"viability, T/C",[10],55.8%
same,"viability, T/C",[11],42.8%
same,"viability, T/C",[12],36.8%
same,"viability, T/C",[13],80.9%
same,"viability, T/C",[14],83.5%
same,"viability, T/C",[15],55.4%
same,"viability, T/C",[16],46.4%
same,"viability, T/C",[17],44.9%
same,"viability, T/C",[18],33%
same,"viability, T/C",[19],74.9%
same,"viability, T/C",[20],62.5%
same,"viability, T/C",[21],65.1%
same,"viability, T/C",[22],45.6%
same,"viability, T/C",[23],39.9%
same,"viability, T/C",[24],32.6%
same,"viability, T/C",[25],80.9%
same,"viability, T/C",[26],65.4%
same,"viability, T/C",[27],47.6%
same,"viability, T/C",[28],38.4%
same,"viability, T/C",[29],33.4%
same,"viability, T/C",[30],29.5%
same,"viability, T/C",[31],70.2%
same,"viability, T/C",[32],66.7%
same,"viability, T/C",[33],49.6%
same,"viability, T/C",[34],42.4%
same,"viability, T/C",[35],35.6%
same,"viability, T/C",[36],23.3%
